From patent US9061030B2, “sGC stimulators” (IRONWOOD PHARMACEUTICALS, INC., priority 2010, dated 2015)

Experiments:
[1] = target: T1, soluble guanylate cyclase (sGC) (Homo sapiens, UniProt Q02108+Q02153); assay: sGC-HEK-cGMP assay; format: cell-based; settings: HEK293 cells, 10 μM SNP, percentage of sGC activity obtained with positive control BAY 41-2272 (= 100%); for Emax at 10 µM: compound at 10 μM; for Emax at 30 µM: compound at 30 μM
T1 construct: endogenously expressing soluble guanylate cyclase (sGC); endogenous in cells; host or cells: HEK293
T1 sequence (Q02153 1-619): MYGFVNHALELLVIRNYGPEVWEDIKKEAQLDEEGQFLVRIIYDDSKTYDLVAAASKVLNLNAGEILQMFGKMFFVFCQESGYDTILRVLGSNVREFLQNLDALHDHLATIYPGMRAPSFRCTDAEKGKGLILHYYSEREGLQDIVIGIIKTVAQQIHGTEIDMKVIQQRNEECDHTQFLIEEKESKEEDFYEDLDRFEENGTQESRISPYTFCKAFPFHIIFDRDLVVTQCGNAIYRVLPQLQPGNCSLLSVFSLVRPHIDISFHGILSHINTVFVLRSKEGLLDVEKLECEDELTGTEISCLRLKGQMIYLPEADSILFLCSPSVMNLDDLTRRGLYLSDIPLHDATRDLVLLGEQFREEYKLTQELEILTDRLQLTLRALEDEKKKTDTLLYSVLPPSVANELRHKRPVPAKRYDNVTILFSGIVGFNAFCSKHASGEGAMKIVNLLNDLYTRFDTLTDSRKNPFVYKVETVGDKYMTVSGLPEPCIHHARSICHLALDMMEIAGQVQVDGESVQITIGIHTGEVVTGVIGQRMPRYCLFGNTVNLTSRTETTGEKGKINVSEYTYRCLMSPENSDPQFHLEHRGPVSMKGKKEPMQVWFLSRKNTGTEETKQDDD
T1 sequence (Q02108 1-690): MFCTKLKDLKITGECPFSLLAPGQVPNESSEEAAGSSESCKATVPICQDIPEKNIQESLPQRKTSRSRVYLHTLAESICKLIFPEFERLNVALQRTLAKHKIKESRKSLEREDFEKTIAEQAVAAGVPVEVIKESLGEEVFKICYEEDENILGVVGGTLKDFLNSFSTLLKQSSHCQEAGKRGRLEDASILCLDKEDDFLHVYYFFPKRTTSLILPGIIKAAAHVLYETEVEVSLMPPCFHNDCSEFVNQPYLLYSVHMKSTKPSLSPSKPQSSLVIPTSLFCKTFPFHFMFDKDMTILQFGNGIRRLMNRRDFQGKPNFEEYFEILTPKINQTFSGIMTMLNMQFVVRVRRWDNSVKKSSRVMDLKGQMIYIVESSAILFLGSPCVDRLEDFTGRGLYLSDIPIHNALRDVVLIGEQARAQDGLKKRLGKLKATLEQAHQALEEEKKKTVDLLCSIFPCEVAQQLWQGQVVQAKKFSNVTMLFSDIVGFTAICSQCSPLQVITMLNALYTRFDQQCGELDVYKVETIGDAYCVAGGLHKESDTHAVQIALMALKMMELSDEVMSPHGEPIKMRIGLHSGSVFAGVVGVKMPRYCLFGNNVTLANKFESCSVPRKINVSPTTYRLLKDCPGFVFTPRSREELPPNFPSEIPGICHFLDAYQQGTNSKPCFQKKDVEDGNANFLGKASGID
Protocol: Human embryonic kidney cells (HEK293), endogenously expressing soluble guanylate cyclase (sGC), were used to evaluate the activity of the test compounds. Compounds stimulating the sGC receptor should cause an increase in the intracellular concentration of cGMP. HEK 293 cells were seeded in Dulbecco's Modification of Eagle's Medium supplemented with fetal bovine serum (10% final) and L-glutamine (2 mM final) in a 200 μL volume at a density of 1×10^5 cells/well in a poly-D-lysine coated 96 well flat bottom plate and grown overnight at 37° C. Medium was aspirated and cells were washed with 1× Hank's Buffered Saline Salt Solution (200 μL). Cells were then incubated for 15 minutes at 37° C. with 0.5 mM 3-isobutyl-1-methylxanthine (200 μL). Test article was then added to the assay mixture (2 μL) and incubated in the presence of 10 μM Sodium Nitroprusside (SNP) at 37° C. for 10 minutes. After the 10 minute incubation, the assay mixture was aspirated and 0.1M HCl (200 μL) was added to the cells. The plate was incubated at 4° C. for 30 minutes in the 0.1M HCl to stop the reaction and lysed the cells. The plates were then centrifuged at 1,200 g for 5 minutes at room temperature. Supernatants were collected and transferred to a new flat bottom 96 well plate for analysis. Vehicle controls were carried out using DMSO (1%). A known sGC stimulator, BAY 41-2272, was used as the positive control.
Samples were diluted with an equal volume of 1 M Ammonium Acetate (pH 7) to neutralize samples for better chromatography. A 2×cGMP standard curve was prepared in 0.1 M HCl and then diluted with an equal volume of 1 M Ammonium Acetate, with the following final concentrations in nM: 1024, 512, 256, 128, 64, 32, 16, 8, 4, 2, 1.cGMP concentrations were determined from each sample using the LC/MS conditions (Table 2 below) and calculated standard curve. EC50 values were calculated from concentration-response curves generated with GraphPad Prism Software.
The biological activities of some of the compounds according to Formula IA or Formula IB determined with the sGC-HEK assay are summarized in Table 3 below.

[2] = target: T2, Human soluble guanylate cyclase enzyme (hsGC) (Homo sapiens, UniProt Q02108+Q02153); assay: Purified human sGC enzyme activity assay (with or without SNP); format: biochemical; settings: 30 μM compound; for sGC Enzyme Activity Increase at 30 μM with SNP: 1 μM SNP, specific activity vs DMSO and SNP; for sGC Enzyme Activity Increase at 30 μM without SNP: specific activity vs DMSO control
T2 construct: purchased Enzo Inc. ALX-201-177
T2 sequence (Q02153 1-619): T1 sequence (Q02153 1-619)
T2 sequence (Q02108 1-690): T1 sequence (Q02108 1-690)
Protocol: Human soluble guanylate cyclase enzyme (hsGC) obtained from Enzo Inc. (P/N: ALX-201-177) was used to evaluate the activity of test compounds. The assay reactions contained 0.1 M Tris (pH 8.0), 0.5 mg/mL BSA (pH 8.0), 2 mM DTT, 2 mM MgCl2, 300 μM GTP, 1 mM 3-isobutyl-1-methylxanthine (IBMX) and 5 ng human soluble guanylate cyclase enzyme. Test compounds in DMSO were then added (2 μL, 10 or 30 μM final concentration) and incubated (200 μL, 96-well plate format) at 37° C. for 30 minutes. The controls were carried out using 2 μL DMSO. After the 30 minute incubation, the reaction was stopped with the addition of 200 μL of cold methanol. The plate was then centrifuged at 3,200 rpm for 10 minutes at room temperature. Supernatants (200 μL) were collected and transferred to a new 96 well plate for analysis.
An 8 point cGMP (Sigma-Aldrich P/N: G6129) standard curve was prepared in assay buffer ranging from 0.156-20 μM. Samples for the cGMP standard curve were then diluted with an equal volume of methanol resulting in final cGMP concentrations of 0.078-10 μM.
The cGMP standard curve was generated using GraphPad Prism Software.
Calculations: Specific Activity was determined by the amount of cGMP formed (nmoles) per mg of sGC per min. Enzyme activity “fold-change” was calculated by dividing the Specific Activity for a test compound by the Specific Activity of DMSO control.
The enzymatic activity fold-change of the purified human sGC enzyme determined in the presence of each of the test compounds individually at 10 or 30 μm without the addition of sodium nitroprusside (SNP), a nitric oxide donor, is presented in Table 5.
Enzyme assays were also performed as described above, but in the presence of 1 μM sodium nitroprusside (SNP). Enzymatic activity fold-changes are reported for selected test compounds in the presence of both SNP and the test compound. These were calculated by dividing the specific activity (activity increase) for the test compound dissolved in DMSO and SNP over the specific activity for the mixture of DMSO and SNP.

`Fc1ccccc1Cn1nc(-c2ccccn2)nc1-n1ccnc1` [Compound I-49, 2-(1-(2-fluorobenzyl)-5-(1H-imidazol-1-yl)-1H-1,2,4-triazol-3-yl)pyridine] was tested, and the Emax at 10 µM [1] was 0 to 5%, the Emax at 30 µM [1] was 5 to 10% and the “sGC Enzyme Activity Increase at 30 μM with SNP” value [2] was “B (B = 1 to <2 fold increase)”. The “sGC Enzyme Activity Increase at 30 μM without SNP” value [2] was “B (B = 1 to <2 fold increase)”.

With `Fc1ccccc1Cn1nc(-c2cc(Br)ccn2)nc1-c1cscn1` [Compound I-51, 4-(3-(4-bromopyridin-2-yl)-1-(2-fluorobenzyl)-1H-1,2,4-triazol-5-yl)thiazole] the Emax at 10 µM [1] was 20 to 40%, the Emax at 30 µM [1] was 20 to 40% and the “sGC Enzyme Activity Increase at 30 μM with SNP” value [2] was “E (E = 10 to <20 fold increase)”. The “sGC Enzyme Activity Increase at 30 μM without SNP” value [2] was “C (C = 2 to <5 fold increase)”.

In the case of `Fc1ccccc1Cn1nc(-c2cscn2)nc1-c1cc(Br)ccn1` [Compound I-52, 4-(5-(4-bromopyridin-2-yl)-1-(2-fluorobenzyl)-1H-1,2,4-triazol-3-yl)thiazole], the Emax at 10 µM [1] is reported as 0 to 5%, the Emax at 30 µM [1] is reported as 0 to 5% and the “sGC Enzyme Activity Increase at 30 μM with SNP” value [2] is reported as “B (B = 1 to <2 fold increase)”. The “sGC Enzyme Activity Increase at 30 μM without SNP” value [2] was “B (B = 1 to <2 fold increase)”.

With `Fc1ccccc1Cn1nc(-c2cc(Br)ccn2)nc1-c1cocn1` [Compound I-54, 4-(3-(4-bromopyridin-2-yl)-1-(2-fluorobenzyl)-1H-1,2,4-triazol-5-yl)oxazole] the Emax at 10 µM [1] was 20 to 40%, the Emax at 30 µM [1] was 40 to 60% and the “sGC Enzyme Activity Increase at 30 μM with SNP” value [2] was “D (D = 5 to <10 fold increase)”. The “sGC Enzyme Activity Increase at 30 μM without SNP” value [2] was “C (C = 2 to <5 fold increase)”.

For `Fc1ccccc1Cn1nc(-c2cscn2)nc1-c1cnccn1` [Compound I-55], the Emax at 10 µM [1] was 0 to 5%, the Emax at 30 µM [1] was 5 to 10% and the “sGC Enzyme Activity Increase at 30 μM with SNP” value [2] was “C (C = 2 to <5 fold increase)”. The “sGC Enzyme Activity Increase at 30 μM without SNP” value [2] was “B (B = 1 to <2 fold increase)”.

For `Fc1ccccc1Cn1nc(-c2cnccn2)nc1-c1cscn1` [Compound I-56], the Emax at 10 µM [1] was 10 to 20%, the Emax at 30 µM [1] was 40 to 60% and the “sGC Enzyme Activity Increase at 30 μM with SNP” value [2] was “D (D = 5 to <10 fold increase)”. The “sGC Enzyme Activity Increase at 30 μM without SNP” value [2] was “B (B = 1 to <2 fold increase)”.

For `Nc1nc(-c2nc(-c3nccs3)n(Cc3ccccc3F)n2)nc(N)c1N` [Compound I-57, 2-(1-(2-fluorobenzyl)-5-(thiazol-2-yl)-1H-1,2,4-triazol-3-yl)pyrimidin-4,5,6-triamine], the Emax at 10 µM [1] was 0 to 5%, the Emax at 30 µM [1] was 0 to 5% and the “sGC Enzyme Activity Increase at 30 μM with SNP” value [2] was “C (C = 2 to <5 fold increase)”. For the same molecule, the “sGC Enzyme Activity Increase at 30 μM without SNP” value [2] was “B (B = 1 to <2 fold increase)”.

For `Fc1ccccc1Cn1nc(-c2ccccn2)nc1-c1ccon1` [Compound I-58, 3-(1-(2-fluorobenzyl)-3-(pyridin-2-yl)-1H-1,2,4-triazol-5-yl)isoxazole], the Emax at 10 µM [1] was 40 to 60%, the Emax at 30 µM [1] was 60 to 80% and the “sGC Enzyme Activity Increase at 30 μM with SNP” value [2] was “D (D = 5 to <10 fold increase)”. The “sGC Enzyme Activity Increase at 30 μM without SNP” value [2] was “C (C = 2 to <5 fold increase)”.

`Fc1ccccc1Cn1nc(-c2ncccn2)nc1-c1ccon1` [Compound I-59, 3-(1-(2-fluorobenzyl)-3-(pyrimidin-2-yl)-1H-1,2,4-triazol-5-yl)isoxazole] was tested, and the Emax at 10 µM [1] was 0 to 5%, the Emax at 30 µM [1] was 0 to 5% and the “sGC Enzyme Activity Increase at 30 μM with SNP” value [2] was “A (A = no increase to <1 fold increase)”. The “sGC Enzyme Activity Increase at 30 μM without SNP” value [2] was “A (A = no increase to <1 fold increase)”.

For `COC(=O)Nc1c(N)nc(-c2nc(-c3nccs3)n(Cc3ccccc3F)n2)nc1N` [Compound I-60, methyl 4,6-diamino-2-(1-(2-fluorobenzyl)-5-(thiazol-2-yl)-1H-1,2,4-triazol-3-yl)pyrimidin-5-ylcarbamate], the Emax at 10 µM [1] was 10 to 20%, the Emax at 30 µM [1] was 20 to 40% and the “sGC Enzyme Activity Increase at 30 μM with SNP” value [2] was “D (D = 5 to <10 fold increase)”. For the same molecule, the “sGC Enzyme Activity Increase at 30 μM without SNP” value [2] was “B (B = 1 to <2 fold increase)”.

In the case of `Fc1ccccc1Cn1nc(-c2cocn2)nc1-c1nccs1` [Compound I-62], the Emax at 10 µM [1] is reported as 10 to 20%, the Emax at 30 µM [1] is reported as 5 to 10% and the “sGC Enzyme Activity Increase at 30 μM with SNP” value [2] is reported as “C (C = 2 to <5 fold increase)”. For the same molecule, the “sGC Enzyme Activity Increase at 30 μM without SNP” value [2] was “A (A = no increase to <1 fold increase)”.

With `Fc1ccccc1Cn1nc(-c2nccs2)nc1-c1cocn1` [Compound I-63] the Emax at 10 µM [1] was 60 to 80%, the Emax at 30 µM [1] was 20 to 40% and the “sGC Enzyme Activity Increase at 30 μM with SNP” value [2] was “D (D = 5 to <10 fold increase)”. The “sGC Enzyme Activity Increase at 30 μM without SNP” value [2] was “B (B = 1 to <2 fold increase)”.

With `Fc1ccccc1Cn1nc(-c2cc(N3CCOCC3)ccn2)nc1-c1nccs1` [Compound I-65, 4-(2-(1-(2-fluorobenzyl)-5-(thiazol-2-yl)-1H-1,2,4-triazol-3-yl)pyridin-4-yl)morpholine] the Emax at 10 µM [1] was 80 to 100%, the Emax at 30 µM [1] was 80 to 100% and the “sGC Enzyme Activity Increase at 30 μM with SNP” value [2] was “E (E = 10 to <20 fold increase)”. The “sGC Enzyme Activity Increase at 30 μM without SNP” value [2] was “D (D = 5 to <10 fold increase)”.
